In one data set the test system is MRSA ATCC 43300. Briefly: MIC and MBC determination (broth microdilution). Type of data set: cell-based. The following applies: Staphylococcus aureus. The protocol:
(§1) The MIC values of Z33 against MRSA ATCC 43300 and S. aureus clinical isolates were measured according to the broth microdilution guidelines provided by the Clinical and Laboratory Standards Institute (CLSI). S. aureus ATCC 29213 was used as the quality control strain, and the quality control range was referred to the CLSI. The MIC value is defined as the lowest concentration of the compounds with no visible growth of bacteria. The MIC assay was independently repeated three times.
(§2) The MBC values of antibacterial agents were measured after incubation at 37 °C for 24 h. Briefly, 100 µL of bacterial solution from the three wells behind the corresponding well of MIC was absorbed and spread on the Mueller–Hinton Agar (MHA). The MBC refers to the lowest concentration corresponding to the amount of colony-forming unit (CFU) ≤ 5 on the medium after 18~24 h of incubation at 37 °C.
Background: Dilution methods test growth across graded concentrations, often in twofold steps.

Another data set concerns S. aureus ATCC 29213. Kind of data set: MIC and MBC determination (broth microdilution). The following applies: Staphylococcus aureus. Type of data set: cell-based. The procedure: as §1, §2
Data set [1] deals with S. aureus clinical strain 144. Briefly: MIC and MBC determination (broth microdilution). Type of data set: cell-based. To be noted: Staphylococcus aureus. The procedure:
as §1, §2

Data set [2] concerns S. aureus clinical strain AD3. Kind of data set: MIC and MBC determination (broth microdilution). Type of data set: cell-based. The following applies: Staphylococcus aureus. The procedure: as §1, §2
In data set [3] the test system is four S. aureus strains. Briefly: microbe, parasite or virus in culture. It is filed as cell-based, Staphylococcus aureus. The protocol: To assess the propensity for the development of bacterial resistance, the ability of Z33 and tiamulin to induce resistance to four strains were tested, respectively. Serial passages at 37 °C were performed daily in BHI broth containing sub-MIC concentration (1/4 MIC) of Z33 and tiamulin. The MIC values were daily determined and recorded by the broth microdilution method. A duration of 13 passages was performed in every case.

A short description of data set [4]: Acute oral toxicity in mice. The following applies: both sexes, ICR, mouse, in vivo, 5 g/kg; acute oral toxicity, mice. The procedure:
(§3) The acute toxicity of Z33 was performed in mice according to previous works with some modifications. The ICR mice were randomly divided into two groups (10 animals in each group, half male and half female) after 12 h of fasting. Z33 was prepared with 0.5% CMC-Na sodium as a suspension at a concentration of 5 g/kg. Mice in the test group were administered with Z33 suspension by oral administration route, and the control group received an equal dose of 0.5% CMC-Na. All the mice were observed critically once a day for 14 days. The test was repeated twice.

The test system of another data set is ICR mice. Kind of data set: Acute oral toxicity in mice. The following applies: mouse, in vivo, po, 5000 mg/kg. The procedure: as §3
For data set [5], the system named is four S. aureus strains. Kind of data set: MIC and MBC, summary over four strains. It is filed as cell-based. The following applies: Staphylococcus aureus; range over four strains; read-out: MIC values against four S. aureus strains. The protocol: as §1, §2
Data set [6] relates to four S. aureus strains. Kind of data set: MPC, summary over four strains. Type of data set: cell-based, Staphylococcus aureus. The protocol: The drug-resistant tendency suppression potential of Z33 and tiamulin was determined as described with minor modifications. In the test, for each S. aureus strain, 4 mL of overnight cultures were inoculated into 100 mL of fresh BHI broth and then incubated for 4.5 h at 37 °C with shaking (210 rpm). Cultures were centrifuged at 5000 r/min for 10 min. The supernatant was discarded and resuspended in the 4 mL of saline to achieve a bacterial density of ~3 × 10^10 CFU/mL. In total, 100 μL of each culture was spread onto MHA containing various concentrations of Z33 and tiamulin. […] Plates were incubated at 37 °C for a total of 72 h and recorded every 24 h for the appearance of colonies. MPC was defined as the lowest concentration with no growth of colonies on the agar plate. MPC was carried out in triplicate.

Data on one molecule can be found in paper PMC9370166, “In Vitro and In Vivo Antibacterial Activity, Toxicity and Resistance Analysis of Pleuromutilin Derivative Z33 against Methicillin-Resistant Staphylococcus aureus” (Molecules, 2022).

What is called MIC is the smallest concentration in the dilution series that meets the test's criterion for growth inhibition. The MBC is the smallest concentration meeting the test's criterion for killing. For orientation: LD50 means the dose at which mortality reaches 50%.

Structures are written as SMILES. In brackets after ≈: the same amount, converted by molar mass. Where only a bound is given, the exact number is not on record here.

With `C=C[C@]1(C)C[C@@H](OC(=O)CSc2ccccc2NC(=O)Cn2cc(CN3CCN(c4ccc([N+](=O)[O-])cc4)CC3)nn2)[C@]2(C)[C@H](C)CC[C@]3(CCC(=O)[C@H]32)[C@@H](C)[C@@H]1O` [Compound Z33, 22-(2-(2-(4-((4-(4-nitrophenyl)piperazin-1-yl)methyl)-1H-1,2,3-triazol-1-yl)acetamido)phenyl)thioacety-l-yl-22-deoxypleuromutilin], the minimum inhibitory concentration (MIC) was 0.125 µg/mL (≈ 0.154 µM) against MRSA ATCC 43300 (first value of MIC/MBC cell); 0.125 µg/mL (≈ 0.154 µM) against S. aureus ATCC 29213 (ATCC29213, first value of cell); 0.25 µg/mL (≈ 0.307 µM) in data set [1] (first value of cell); 0.25 µg/mL (≈ 0.307 µM) in data set [2] (first value of cell); 0.125 to 0.25 µg/mL (≈ 0.154 to 0.307 µM) with four S. aureus strains [5]. Further, the MBC came out at 0.25 µg/mL (≈ 0.307 µM) in the data set on MRSA ATCC 43300 (second value of MIC/MBC cell); 0.125 µg/mL (≈ 0.154 µM) with S. aureus ATCC 29213 (ATCC29213, second value of cell); 0.25 µg/mL (≈ 0.307 µM) in [1] (second value of cell); 0.25 µg/mL (≈ 0.307 µM) in [2] (second value of cell). Also, the “fold decrease in susceptibility of the most resistant strain” value in the data set on four S. aureus strains [3] (after 13 passages) came to 32 fold. The “fold increase in MICs” value in the data set on four S. aureus strains [3] (after 13 passages) is “approximately 16 fold”. Also, the “passages after which resistance developed (≥ 4-fold MIC increase)” value in the data set with four S. aureus strains [3] (four S. aureus strains) is 8 passages. For the same molecule, the “fold increase in MIC” value with four S. aureus strains [3] (in 7 passages, sub-MIC (1/4 MIC) exposure) is ≤ 4 fold. Further, the median lethal dose (LD50) at 14 days in data set [4] is > 5000 mg/kg. For the same molecule, in the data set on ICR mice, the mortality result is “None of the mice died”. Besides, the “MPCs to four S. aureus strains” value in the data set with four S. aureus strains [6] worked out at 0.5 µg/mL.
